Key:
[1] = test system: MCF-7 cells (human breast carcinoma); experiment: Inhibition of cell proliferation, AlamarBlue fluorescent assay, MCF-7; format: cell-based; settings: MCF7, 48 hours, cancer cell line
Description: (§1) The cancer cell lines used in this study included human lung carcinoma (A549), human breast carcinoma (BT20 and MCF-7) and human osteosarcoma (U2OS), with the normal cell lines human peripheral lung epithelial cells (HPL1A) and human mammary epithelial cells (HMEC) serving as controls. A549, BT20, MCF-7, U2OS and HMEC cells were purchased from American Type Culture Collection (ATCC, USA), and HPL1A cells were obtained from Nagoya University, Japan. A549 and BT20 were grown in RPMI-1640 (Sigma), MCF-7 was grown in Dulbecco's Modified Eagle Medium (DMEM) (Sigma) supplemented with 0.01 mg/ml human recombinant insulin (Sigma), U2OS and HMEC were grown in McCoy's 5A (ATCC), and HPL1A was grown in DMEM/F-12K (Sigma). The mediums were supplemented with 10% Fetal Bovine Serum (FBS) (Gibco), 1% penicillin and streptomycin and incubated in a humidified atmosphere with 5% CO2 at 37° C.
The proliferation inhibition potential of cis- and trans-gnetin H was determined by a fluorescence dye staining method. Cells were seeded in a 96-well tissue culture-treated plate (BD Falcon) at a density of 4000 cells/well, and treated with cis- or trans-gnetin H for 48 hours. AlamarBlue dye (Invitrogen) was used to assess the viability of cells according to the manufacturer's instructions; the fluorescent intensity was read on a SpectraMax M2e microplate reader (Molecular Devices Inc.). […]

[2] = test system: HPL1A cells (human peripheral lung epithelial cells); experiment: Inhibition of cell proliferation, AlamarBlue fluorescent assay, HPL1A normal control; format: cell-based; settings: for inhibitory effects on normal HPL1A cells: 10 uM, up to 48 hours; for IC50: Homo sapiens, HPL1A, 48 hours, AlamarBlue, normal cell line
Description: as §1
The proliferation inhibition potential of cis- and trans-gnetin H was determined by a fluorescence dye staining method. Cells were seeded in a 96-well tissue culture-treated plate (BD Falcon) at a density of 4000 cells/well, and treated with cis- or trans-gnetin H for 48 hours. AlamarBlue dye (Invitrogen) was used to assess the viability of cells according to the manufacturer's instructions; the fluorescent intensity was read on a SpectraMax M2e microplate reader (Molecular Devices Inc.).
For the determination of IC50 values, cells were treated with a serial dilution (320 μM, 100 μM, 32 μM, 10 μM, 3.2 μM, and 0.32 μM) of cis- or trans-gnetin H for 48 hours. Cell viability was determined with AlamarBlue dye (Invitrogen) and the IC50 values were calculated using non-linear regression analysis.

[3] = Stability testing, 6 months in the dark at room temperature, HPLC; format: physicochemical; settings: 6-month storage in the dark at room temperature, 1 mg/ml in methanol
Description: For stability testing, cis- and trans-gnetin H were dissolved with methanol to a concentration of 1 mg/ml. The stock solutions were sealed in a glass bottle and kept in the dark at room temperature for 6 months and then the purity of the two compounds was tested using the HPLC method previously described (He et al., J. Liq. Chromatog. Rel. Technol. 2013; 36:1708-1724). For conversion testing, cis- and trans-gnetin H were individually illuminated with a 12-watt fluorescent lamp for 2, 4 and 6 hours, and the compounds were identified using HPLC.

A549 cells = experiment: Apoptosis assay by flow cytometry, A549; format: cell-based, human; settings: 100 μM, 24 hours
Description: A549 and BT20 cells were seeded in a 96-well plate (BD Falcon) at a density of 8000 cells/well, and treated with cis- or trans-gnetin H for 24 hours. Apoptosis was assessed using Annexin V/7-AAD double staining as described (Bai et al., Cancer Sci. 2010; 101(2):488-493). Cells were analyzed on a Guava Flow Cytometer (Millipore) using InCyte software and the data was exported to FlowJo software for image display.

[4] = test system: mitochondrial cytochrome c in BT20 cells; experiment: Analysis of cytochrome c by flow cytometry, BT20; format: cell-based, human; settings: 100 μM, 24 hours
Description: A549 and BT20 cells were seeded in a 96-well plate (BD Falcon) at a density of 8000 cells/well and treated with 100 μM of cis- or trans-gnetin H for 24 hours. The expression of cytochrome c was evaluated using the FlowCellect Cytochrome c Kit (Millipore) according to the manufacturer's instructions. Cells were stained with either Anti-IgG1-FITC Isotype control or Anti-Cytochrome c-FITC, and data was acquired and analyzed using the Guava Flow Cytometer (Millipore).

[5] = test system: PMA-differentiated THP-1 macrophages; experiment: Cell viability Alamar Blue assay, PMA-differentiated THP-1; format: cell-based, human; settings: for viability of PMA-differentiated THP-1 cells: 3, 6, 13, 25, 50, 100 μM, 24 h treatment
Description: (§2) THP-1 cells were maintained in RPMI 1640 medium supplemented with 10% complement-inactivated FBS and 1% penicillin/streptomycin (complete culture medium) at 37° C. with 5% CO2 supplemented. Cell concentrations were adjusted to desired concentrations for each experiment by centrifugation at 500×g for 5 min and resuspended in complete culture medium with 100 nM of PMA. Cell concentration was adjusted to 5×10^5 cells/ml for all assays and 2.5×10^5 cells/ml were used for NF-κB nuclear translocation assay. Cells were seeded onto 96-, 24-, or 12-well plates and incubated for 48 to 72 h to allow for differentiation. Cells were washed with serum-free RPMI 1640 medium before each experiment to remove the undifferentiated cells.
Differentiated THP-1 cells were treated with various concentrations of cis- and trans-gnetin H and 1 μM of dexamethasone for 24 h. Following treatment, the cell supernatants were replaced with culture medium containing 1× Alamar Blue reagent and incubated for an additional 20-24 h. Cell viability was assessed by measuring Relative Fluorescent Units (RFU) on the SpectraMax M2e microplate reader (Molecular Devices Inc., Sunnyvale, Calif., USA) at Ex 560 nm and Em 590 nm. The results were expressed as a percentage, relative to untreated control cells (FIG. 9). Untreated and LPS-treated cells were tested for the effect of DMSO as vehicle control.
(§3) Differentiated THP-1 cells were pretreated with various concentrations of cis-gnetin H, trans-gnetin H, or 1 μM of dexamethasone for 1 h and stimulated with 20 ng/ml of LPS for 4 h. Dexamethasone is a synthetic glucocorticoid that suppresses cytokine response and was used as a positive control (Abraham et al., 2006, J. Exp. Med., 203:1883-9; Steer et al., J. Biol. Chem., 2000, 275(24):18432-40). Supernatants were collected for human cytokine ELISAs and the manufacturer's protocol was followed to assess the cytokine response. Cells remaining after the supernatant collection were tested for relative viability by Alamar Blue cytotoxicity assay as described earlier.

[6] = test system: IL-1β in LPS-stimulated THP-1 cells; experiment: Cytokine response by ELISA, IL-1β; format: cell-based, human; settings: cis 12.5-50 μM, trans 8-30 μM, 20 ng/ml LPS, p<0.05
Description: as §2, §3

[7] = test system: IL-8 in LPS-stimulated THP-1 cells; experiment: Cytokine response by ELISA, IL-8; format: cell-based, human; settings: cis 12.5-50 μM, trans 8-30 μM, 20 ng/ml LPS, p<0.05
Description: as §2, §3

SMILES | IC50 [1] | inhibitory effects on normal HPL1A cells [2] | IC50 [2] | chemical identity after storage [3] | apoptosis induction in A549 (A549 cells) | cytochrome c release in BT20 [4] | viability of PMA-differentiated THP-1 cells [5] | cell viability with LPS ([5]; pretreatment 12.5, 25, 50 μM and LPS) | inhibition of IL-1β [6] | inhibition of IL-8 [7] | cell viability with LPS relative to untreated control ([5]; pretreated at 50 μM and LPS)
Oc1ccc(/C=C\c2c3c(cc4c2[C@H](c2cc(O)cc(O)c2)[C@@H](c2ccc(O)cc2)O4)O[C@H](c2ccc(O)cc2)[C@H]3c2cc(O)cc(O)c2)cc1 [cis-gnetin H] | 10 µM | no such obvious inhibitory effects | 91 µM | no obvious changes | induce apoptosis | release of mitochondrial cytochrome c | Neither cis- nor trans-gnetin H affected the viability of the cells | no effect on cell viability | significant inhibition | significant inhibition | –
Oc1ccc(/C=C/c2c3c(cc4c2[C@H](c2cc(O)cc(O)c2)[C@@H](c2ccc(O)cc2)O4)O[C@H](c2ccc(O)cc2)[C@H]3c2cc(O)cc(O)c2)cc1 [trans-gnetin H] | 7.58 µM | no such obvious inhibitory effects | 72 µM | no obvious changes | induce apoptosis | release of mitochondrial cytochrome c | Neither cis- nor trans-gnetin H affected the viability of the cells | – | significant inhibition | significant inhibition | decreased viability

— patent US11007169B2, “Cis-gnetin H and trans-gnetin H as therapeutic agents” (MIDDLE TENNESSEE STATE UNIVERSITY, priority 2014, dated 2021)
